Source: patent publication US12479818B2, “Treatment of fibrosis with IRE1 small molecule inhibitors” (Cornell University, priority 2019, dated 2025)

Biological target: IRE1a (Homo sapiens, UniProt O75460)
Experiment: IRE1a Endoribonuclease Nanoluciferase Assay (XBP1 luciferase reporter in 293T cells)
Format: cell-based
Set-up: endogenous in cells; host or cells: 293T
Conditions: XBP1 nanoluciferase reporter in 293T cells, ER stressor; tested as the salt named
Protocol: Compounds disclosed herein were assessed for disruption of IRE1 signaling using a IRE1a Endoribonuclease Nanoluciferase Assay. […] About 24 hours later, the cells were transfected with Effectene. In a 15 mL tube, the following was added: 2 ug XBP1 luciferase reporter plasmid (PGK-Luc2-P2A-XBP1u-Nanoluciferase-PEST); 300 ul EC buffer; and 16 ul Enhancer, followed by incubation at room temp for 5 minutes. […] 2.6 mL cDMEM media was added. Old media was aspirated from the cells, followed by addition of 7 mL fresh media. Full transfection mixture was added dropwise to cells. Cells were incubated for 6 hours, followed by trypsinization, centrifugation and resuspension in 11 mL fresh cDMEM media. 100 μL of cells were plated per a well in a 96 well plate. A day later, ER stressors of choice +/− inhibitors were added. To harvest, media was aspirated from cells completely, then 50 uL 1× passive lysis buffer (Promega: E1941) was added per well and put on shaker (300 rpm) for 30 minutes at room temperature. […] 15 uL OneGlo (nanoluciferase kit, Promega N1630) was added. Plates were spun down, placed on shaker (300 rpm) for 10 minutes. Plates were read on luminometer, 1000 ms integration time per well. 15 uL Stop and Glo (nanoluciferase kit) was added. Plates were spun down, placed on shaker (300 rpm) for 10 minutes. Plates were read on luminometer, 1000 ms second integration time per well.

Chain of IRE1a (O75460 19-977): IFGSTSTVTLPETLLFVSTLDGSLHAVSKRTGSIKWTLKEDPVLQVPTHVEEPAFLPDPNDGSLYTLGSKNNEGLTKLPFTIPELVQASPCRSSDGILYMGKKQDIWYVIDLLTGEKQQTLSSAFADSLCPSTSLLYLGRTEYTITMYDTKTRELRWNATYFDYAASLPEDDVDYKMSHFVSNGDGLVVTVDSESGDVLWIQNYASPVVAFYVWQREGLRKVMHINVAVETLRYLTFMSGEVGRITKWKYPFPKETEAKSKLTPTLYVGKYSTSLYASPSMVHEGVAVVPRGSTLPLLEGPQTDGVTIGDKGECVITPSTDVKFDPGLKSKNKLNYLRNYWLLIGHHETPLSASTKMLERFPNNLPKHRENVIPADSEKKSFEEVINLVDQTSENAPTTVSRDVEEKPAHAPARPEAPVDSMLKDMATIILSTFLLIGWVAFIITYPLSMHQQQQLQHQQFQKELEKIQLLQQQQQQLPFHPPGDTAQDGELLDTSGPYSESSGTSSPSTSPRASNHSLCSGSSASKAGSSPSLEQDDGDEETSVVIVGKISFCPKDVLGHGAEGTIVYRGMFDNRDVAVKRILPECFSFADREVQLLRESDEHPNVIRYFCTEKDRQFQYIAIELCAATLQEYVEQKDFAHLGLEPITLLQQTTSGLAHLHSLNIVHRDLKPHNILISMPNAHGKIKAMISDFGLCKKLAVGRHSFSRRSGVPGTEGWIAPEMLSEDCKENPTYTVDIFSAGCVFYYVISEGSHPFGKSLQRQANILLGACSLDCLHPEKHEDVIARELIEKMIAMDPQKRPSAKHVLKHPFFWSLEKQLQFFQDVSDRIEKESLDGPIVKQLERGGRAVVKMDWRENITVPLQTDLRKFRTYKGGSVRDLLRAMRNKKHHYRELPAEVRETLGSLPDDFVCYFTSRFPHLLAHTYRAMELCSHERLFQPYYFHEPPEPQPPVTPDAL

Compound | EC50
CCc1cc(-c2ccc(NS(=O)(=O)c3ccccc3Cl)nc2C)cc2cnc(N[C@H]3CC[C@H](N(C)CCOC)CC3)nc12 [Compound 132, 2-chloro-N-(5-(8-ethyl-2-(((1r,4r)-4-((2-methoxyethyl)(methyl)amino)cyclohexyl)amino)quinazolin-6-yl)-6-methylpyridin-2-yl)benzenesulfonamide] | < 5 nM
CCc1cc(-c2cc(NS(=O)(=O)c3ccccc3Cl)no2)cc2cnc(N[C@H]3CC[C@H](N)CC3)nc12 [Compound 44, N-(5-(2-(((1r,4r)-4-aminocyclohexyl)amino)-8-ethylquinazolin 6-yl)isoxazol-3-yl)-2-chlorobenzene-sulfonamide] | < 5 nM
CCc1cc(-c2ccc(NS(=O)(=O)c3ccccc3Cl)c(F)c2)cc2cnc(N[C@@H]3CC[C@H](N)C3)nc12 [Compound 79, N-(4-(2-(((1R,3S)-3-aminocyclopentyl)amino)-8-ethylquinazolin-6-yl)-2-fluorophenyl)-2-chlorobenzene-sulfonamide] | 5 to 50 nM
COc1nc(NS(=O)(=O)c2ccccc2Cl)c(F)cc1-c1cc(F)c2nc(N[C@H]3CC[C@H](N(C)C)CC3)ncc2c1 [Compound 155, 2-chloro-N-(5-(2-(((1r,4r)-4-(dimethylamino)cyclohexyl)amino)-8-fluoroquinazolin-6-yl)-3-fluoro-6-methoxypyridin-2-yl)benzenesulfonamide] | 50 to 100 nM
CCc1cc(-c2ccc(NS(=O)(=O)c3ccccc3Cl)nc2OC)cc2cnc(N[C@H]3CC[C@@H](N(C)C)CC3)nc12 [Compound 141, 2-chloro-N-(5-(2-(((1s,4s)-4-(dimethylamino)cyclohexyl)amino)-8-ethylquinazolin-6-yl)-6-methoxypyridin-2-yl)benzenesulfonamide] | 100 to 10000 nM
CCc1cc(-c2cc(F)c(NS(=O)(=O)c3ccccc3Cl)nc2OC)cc2cnc(NC3CCC(NC)CC3)nc12 (stereo not drawn) [Compound 127, 2-chloro-N-(5-(8-ethyl-2-(((1r,4r)-4-(methylamino)cyclohexyl)amino)quinazolin-6-yl)-3-fluoro-6-methoxypyridin-2-yl)benzenesulfonamide] | < 5 nM
COc1nc(NS(=O)(=O)c2ccccc2Cl)ccc1-c1cc2cnc(N[C@H]3CC[C@H](N(C)C)CC3)nc2cc1C [Compound 108, 2-chloro-N-(5-(2-(((1r,4r)-4-(dimethylamino)cyclohexyl)amino)-7-methylquinazolin-6-yl)-6-methoxypyridin-2-yl)benzenesulfonamide] | < 5 nM
CCc1cc(-c2ccc(NS(=O)(=O)c3ccccc3Cl)c(F)c2)cc2cnc(N[C@@H]3CC[C@@H](N)C3)nc12 [Compound 78] | < 5 nM
CCc1cc(-c2ccc(NS(=O)(=O)c3ccccc3Cl)cn2)cc2cnc(N[C@H]3CC[C@H](N)CC3)nc12 [Compound 28, N-(6-(2-(((1r,4r)-4-aminocyclohexyl)amino)-8-ethylquinazolin-6-yl)pyridin-3-yl)-2-chlorobenzene-sulfonamide] | < 5 nM
CCc1cc(-c2ncc(NS(=O)(=O)c3ccccc3Cl)nc2OC)cc2cnc(N[C@H]3CC[C@H](N(C)C)CC3)nc12 [Compound 157, 2-chloro-N-(5-(2-(((1r,4r)-4-(dimethylamino)cyclohexyl)amino)-8-ethylquinazolin-6-yl)-6-methoxypyrazin-2-yl)benzenesulfonamide] | < 5 nM
CCc1cc(-c2cc(OC)c(NS(=O)(=O)c3ccccc3Cl)nn2)cc2cnc(N[C@H]3CC[C@H](N)CC3)nc12 [Compound 66, N-(6-(2-(((1r,4r)-4-aminocyclohexyl)amino)-8-ethylquinazolin-6-yl)-4-methoxypyridazin-3-yl)-2-chlorobenzene-sulfonamide] | 50 to 100 nM
CCc1c(F)c(-c2ccc(NS(=O)(=O)c3ccccc3Cl)nc2C)cc2cnc(N[C@H]3CC[C@H](N(C)C)CC3)nc12 [Compound 161, 2-chloro-N-(5-(2-(((1r,4r)-4-(dimethylamino)cyclohexyl)amino)-8-ethyl-7-fluoroquinazolin-6-yl)-6-methylpyridin-2-yl)benzenesulfonamide] | < 5 nM
CCc1cc(-c2ccc(NS(=O)(=O)c3ccccc3Cl)c(F)c2)cc2cnc(N[C@H]3CC[C@H](NC(C)=O)CC3)nc12 [Compound 59, N-((1r,4)-4-((6-(4-((2-chlorophenyl)sulfonamido)-3-fluorophenyl)-8-ethylquinazolin-2-yl)amino)cyclohexyl) acetamide] | 50 to 100 nM
CCc1cc(-c2ccc(NS(=O)(=O)c3ccccc3Cl)nc2C)cc2cnc(N[C@@H]3CC[C@@H](N(C)C)C[C@@H]3F)nc12 [Compound 151, 2-chloro-N-(5-(2-(((1R,2S,4R)-4-(dimethylamino)-2-fluorocyclohexyl)amino)-8-ethylquinazolin-6-yl)-6-methylpyridin-2-yl)benzenesulfonamide] | < 5 nM
CCc1cc(-c2ccc(NS(=O)(=O)c3ccccc3Cl)nc2C)cc2cnc(N[C@H]3CC[C@H](N(C)CC4CCC4)CC3)nc12 [Compound 130, 2-chloro-N-(5-(2-(((1r,4r)-4-((cyclobutylmethyl)(methyl)amino)cyclohexyl)amino)-8-ethylquinazolin-6-yl)-6-methylpyridin-2-yl)benzenesulfonamide] | < 5 nM
CCc1cc(-c2ccc(NS(=O)(=O)c3ccccc3Cl)nc2C)cc2cnc(NC3CCC(N(C)CC)CC3)nc12 (stereo not drawn) [Compound 125, 2-chloro-N-(5-(8-ethyl-2-(((1r,4r)-4-(ethyl(methyl)amino)cyclohexyl)amino)quinazolin-6-yl)-6-methylpyridin-2-yl)benzenesulfonamide] | < 5 nM
NC12CCC(Nc3ncc4cc(-c5ccc(NS(=O)(=O)c6ccccc6Cl)c(F)c5)ccc4n3)(CC1)C2 [Compound 86, N-(4-(2-((4-aminobicyclo[2.2. 1]heptan-1-yl)amino)quinazolin-6-yl)-2-fluorophenyl)-2-chlorobenzene-sulfonamide] | 50 to 100 nM
CCc1c(F)c(-c2cc(F)c(NS(=O)(=O)c3ccccc3Cl)nc2OC)cc2cnc(N[C@H]3CC[C@H](N(C)C)CC3)nc12 [Compound 163, 2-chloro-N-(5-(2-(((1r,4r)-4-(dimethylamino)cyclohexyl)amino)-8-ethyl-7-fluoroquinazolin-6-yl)-3-fluoro-6-methoxypyridin-2-yl)benzenesulfonamide] | < 5 nM
CCc1c(F)c(-c2cc(F)c(NS(=O)(=O)c3ccccc3Cl)nc2C)cc2cnc(N[C@H]3CC[C@H](N(C)C)CC3)nc12 [Compound 162, 2-chloro-N-(5-(2-(((1r,4r)-4-(dimethylamino)cyclohexyl)amino)-8-ethyl-7-fluoroquinazolin-6-yl)-3-fluoro-6-methylpyridin-2-yl)benzenesulfonamide] | < 5 nM
CCc1cc(-c2cnc(NS(=O)(=O)c3ccccc3Cl)cc2OC)cc2cnc(N[C@H]3CC[C@H](N)CC3)nc12 [Compound 92, N-(5-(2-(((1r,4r)-4-aminocyclohexyl)amino)-8-ethylquinazolin-6-yl)-4-methoxypyridin-2-yl)-2-chlorobenzene-sulfonamide] | 100 to 10000 nM
CCc1cc(-c2ccc(NS(=O)(=O)c3ccccc3Cl)nc2OC)cc2cnc(N[C@H]3CC[C@H](NC)CC3)nc12 [Compound 116, 2-chloro-N-(5-(8-ethyl-2-(((1r,4r)-4-(methylamino)cyclohexyl)amino)quinazolin-6-yl)-6-methoxypyridin-2-yl)benzenesulfonamide] | < 5 nM
CCc1cc(-c2ccc(NS(=O)(=O)c3ccccc3Cl)c(F)c2)cc2cnc(N[C@@H]3CCC[C@H](N)C3)nc12 [Compound 72, N-(4-(2-(((1R,3S)-3-aminocyclohexyl)amino)-8-ethylquinazolin-6-yl)-2-fluorophenyl)-2-chlorobenzene-sulfonamide] | 100 to 10000 nM
N[C@H]1CC[C@H](Nc2ncc3cc(-c4nnc(NS(=O)(=O)c5ccccc5Cl)s4)ccc3n2)CC1 [Compound 89, N-(5-(2-(((lr,4r)-4-aminocyclohexyl)amino)quinazolin-6-yl)-1,3,4-thiadiazol-2-yl)-2-chlorobenzene-sulfonamide] | 100 to 10000 nM
NC12CCC(Nc3ncc4cc(-c5ccc(NS(=O)(=O)c6ccccc6Cl)c(F)c5)ccc4n3)(CC1)CC2 [Compound 81, N-(4-(2-((4-aminobicyclo[2.2. 2]octan-1-yl)amino)quinazolin-6-yl)-2-fluorophenyl)-2-chlorobenzene-sulfonamide] | < 5 nM
N[C@@H]1CC[C@@H](Nc2ncc3cc(-c4ccc(NS(=O)(=O)c5ccccc5Cl)c(F)c4)ccc3n2)C1 [Compound 77, N-(4-(2-(((1R,3R)-3-aminocyclopentyl)amino)quinazolin-6-yl)-2-fluorophenyl)-2-chlorobenzene-sulfonamide] | 5 to 50 nM
CCc1cc(-c2ccc(NS(=O)(=O)c3ccccc3Cl)nc2)cc2cnc(N[C@H]3CC[C@H](N)CC3)nc12 [Compound 27, N-(5-(2-(((lr,4r)-4-aminocyclohexyl)amino)-8-ethylquinazolin-6-yl)pyridin-2-yl)-2-chlorobenzene-sulfonamide] | < 5 nM
CCc1cc(-c2cc(NS(=O)(=O)c3ccccc3Cl)n[nH]2)cc2cnc(N[C@H]3CC[C@H](N)CC3)nc12 [Compound 29, N-(5-(2-(((lr,4r)-4-aminocyclohexyl)amino)-8-ethylquinazolin-6-yl)-1H-pyrazol-3-yl)-2-chlorobenzene-sulfonamide] | 100 to 10000 nM
